Where two headings read alike, the source gives them in different places.
Legend:
Assay type in all cases: cell-based, human
[1] = system: HTT mRNA; experiment: RT-qPCR splicing assay, HTT canonical junction (CJ) and alternative junction (AJ) mRNA; settings: Homo sapiens; for AC50: increase in HTT alternative junction (AJ) mRNA, read-out: HTT AJ AC50
In short: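 Splicing switches were read by TaqMan RT-qPCR on lysates, quantifying exon-exon junctions of the canonical and alternative-exon isoforms. Lysates came from K562 (GAPDH/GUSB reference) or A673 (PPIA reference) cells exposed 24 h to compound in 11 threefold steps from 10 uM, with DMSO ≤0.25%.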

[2] = system: Target C; experiment: HiBiT protein abundance assay, Target C (Promega Nano-Glo HiBiT Lytic Detection System, knock-in K562 cell line); settings: Homo sapiens, K562, 24 h, HiBiT K562 cell line, 24 hours, top dose 10 μM; read-out: Effect on protein abundance, Target C (IC50 category)
In short: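 Protein abundance was read by Nano-Glo HiBiT lytic luminescence after 24 h compound exposure (10-point, threefold series from 10 μM final) of HiBiT knock-in K562 cells. Parental K562 served as baseline; the 50%-abundance concentration was interpolated from a four-parameter logistic fit.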

[3] = system: MYB; experiment: HiBiT protein abundance assay, MYB HiBiT K562 cell line; settings: HiBiT K562 cell line, 24 hours, top dose 10 μM; read-out: Effect on protein abundance, MYB (IC50 category)
In short: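 Tagged-protein abundance measured by split-NanoBiT luminescence after lysis, following 24 h compound exposure (37° C; 10 μM top, 3-fold, 10 points; DMSO ≤0.25%) of HiBiT knock-in K562 cells. Percent response vs DMSO and unmodified-cell controls; 4-parameter logistic interpolation at 50% gave IC50.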

[4] = decrease in HTT canonical junction (CJ) mRNA, RT-qPCR, read-out: HTT CJ IC50
[5] = Table 5 panel, canonical junction qPCR, compound concentration having 50% response in CJ decrease, read-out: HTT IC50 (decrease in CJ mRNA levels)

| SMILES | IC50 [1, 4] [nM] | AC50 ([1]; RT-qPCR) [nM] | IC50 [1, 5] [nM] | IC50 [2] [nM] | IC50 [3] [nM] |
| --- | --- | --- | --- | --- | --- |
| CNC(=O)Cc1cc(-c2ccc3c(=O)n(C4CCNCC4)ccc3c2)nn2cc(C)nc12 [Compound 534, N-methyl-2-[2-methyl-6-[1-oxo-2-(4-piperidyl)-6-isoquinolyl]imidazo[1,2-b]pyridazin-8-yl]acetamide] | 1000 to 10000 | 1000 to 10000 | 1000 to 10000 | 1000 to 10000 | 100 to 1000 |
| Cc1cn2nc(-c3cc4ccn([C@H]5CCNC5)c(=O)c4cc3O)cc(C)c2n1 [Compound 641, 6-(2,8-dimethylimidazo[1,2-b]pyridazin-6-yl)-7-hydroxy-2-[(3S)-pyrrolidin-3-yl]isoquinolin-1-one] | 1000 to 10000 | 100 to 1000 | 100 to 1000 | 100 to 1000 | < 100 |
| Cc1cn2nc(-c3cc(F)c4c(=O)n(C5CCNCC5)ncc4c3)cc(C)c2n1 [Compound 540] | < 100 | < 100 | < 100 | < 100 | < 100 |
| Cc1cn2nc(-c3ccc4c(=O)n(C5CCNCC5)ccc4c3)cc(CCO)c2n1 [Compound 533, 6-[8-(2-hydroxyethyl)-2-methyl-imidazo[1,2-b]pyridazin-6-yl]-2-(4-piperidyl)isoquinolin-1-one] | 100 to 1000 | 100 to 1000 | 100 to 1000 | 100 to 1000 | < 100 |
| Cc1cn2cc(-c3ccc4c(=O)n(C5CCNCC5)ccc4c3)cc(C#N)c2n1 [Compound 560, 2-methyl-6-[1-oxo-2-(piperidin-4-yl)isoquinolin-6-yl]imidazo[1,2-a]pyridine-8-carbonitrile] | 1000 to 10000 | 100 to 1000 | 100 to 1000 | 100 to 1000 | 100 to 1000 |
| Cc1cn2nc(-c3ccc4c(=O)n(C5CCNCC5)ccc4c3)cc(CC(=O)O)c2n1 [Compound 531, 2-[2-methyl-6-[1-oxo-2-(4-piperidyl)-6-isoquinolyl]imidazo[1,2-b]pyridazin-8-yl]acetic acid] | 100 to 1000 | < 100 | < 100 | 100 to 1000 | < 100 |
| Cn1ccc2c(cnn2-c2ccc3c(=O)n(C4CCNCC4)ccc3c2)c1=O [Compound 521] | 1000 to 10000 | 1000 to 10000 | 1000 to 10000 | 1000 to 10000 | 1000 to 10000 |
| Cc1cn2nc(-c3cc(F)c4c(=O)n(C5CCN(CCF)CC5)ncc4c3)cc(C)c2n1 [Compound 538] | < 100 | < 100 | < 100 | 100 to 1000 | 100 to 1000 |
| Cc1cn2nc(-c3cc4ccn([C@@H]5CCNC5)c(=O)c4cc3O)cc(C)c2n1 [Compound 640, 6-(2,8-dimethylimidazo[1,2-b]pyridazin-6-yl)-7-hydroxy-2-[(3R)-pyrrolidin-3-yl]isoquinolin-1-one] | 1000 to 10000 | 100 to 1000 | 100 to 1000 | 1000 to 10000 | < 100 |
| Cc1cn2cc(-c3cc(O)c4c(=O)n(C5CCNC6(CC6)C5)ncc4c3)cc(Cl)c2n1 (stereo not drawn) [Compound 557] | 100 to 1000 | 100 to 1000 | 100 to 1000 | 100 to 1000 | 100 to 1000 |
| Cc1cc(-c2cc(F)c3c(=O)n(C4CCNC5(CC5)C4)ncc3c2)cc2cn(C)nc12 (stereo not drawn) [Compound 554] | 100 to 1000 | 100 to 1000 | 100 to 1000 | 100 to 1000 | 100 to 1000 |
| Cc1cn2cc(-c3cc4ncn(C5CCNCC5)c(=O)c4cc3F)cc(F)c2n1 [Compound 586, 6-fluoro-7-{8-fluoro-2-methylimidazo[1,2-a]pyridin-6-yl}-3-(piperidin-4-yl)quinazolin-4-one] | 1000 to 10000 | 100 to 1000 | 100 to 1000 | 1000 to 10000 | 100 to 1000 |
| Cn1cc2c(=O)n(-c3ccc4c(=O)n(C5CCNCC5)ccc4c3)ccc2n1 [Compound 530, 6-{2-methyl-4-oxopyrazolo[4,3-c]pyridin-5-yl}-2-(piperidin-4-yl)isoquinolin-1-one] | > 10000 | > 10000 | > 10000 | > 10000 | > 10000 |
| Cc1cn2cc(-c3cc(F)c4c(=O)n([C@H]5CNC[C@H]5C)ccc4c3)cc(F)c2n1 [Compound 652, 8-fluoro-6-(8-fluoro-2-methyl-imidazo[1,2-a]pyridin-6-yl)-2-[(3R,4R)-4-methylpyrrolidin-3-yl]isoquinolin-1-one] | > 10000 | > 10000 | > 10000 | > 10000 | 1000 to 10000 |
| Cc1cn2nc(-c3cc(F)c4c(=O)n([C@H]5CCN(C)C6(CC6)C5)ncc4c3)cc(C)c2n1 [Compound 638] | < 100 | < 100 | < 100 | < 100 | 100 to 1000 |
| Cc1cn2nc(-c3ccc4c(=O)n(C5CCNCC5)ccc4c3)cc(-n3ccc(=O)cc3)c2n1 [Compound 551, 6-[2-methyl-8-(4-oxo-1-pyridyl)imidazo[1,2-b]pyridazin-6-yl]-2-(4-piperidyl)isoquinolin-1-one] | 100 to 1000 | 100 to 1000 | 100 to 1000 | 100 to 1000 | 100 to 1000 |
| Cc1cn2nc(-c3cc(F)c4c(=O)n(C5CCNCC5)ncc4c3)cc(Oc3ccccc3)c2n1 [Compound 548, 8-fluoro-6-(2-methyl-8-phenoxy-imidazo[1,2-b]pyridazin-6-yl)-2-(4-piperidyl)phthala-zin-1-one] | < 100 | < 100 | < 100 | < 100 | < 100 |
| Cc1cn2cc(-c3cc(O)c4c(=O)n(C5CCNCC5)cnc4c3)cc(F)c2n1 [Compound 587, 7-{8-fluoro-2-methylimidazo[1,2-a]pyridin-6-yl}-5-hydroxy-3-(piperidin-4-yl)quinazolin-4-one] | 100 to 1000 | 100 to 1000 | 100 to 1000 | 100 to 1000 | < 100 |
| Cc1cc(-c2ccc3c(=O)n(C4CCNC5(CC5)C4)ncc3c2)cc2cn(C)nc12 (stereo not drawn) [Compound 512] | 1000 to 10000 | 100 to 1000 | 100 to 1000 | < 100 | 1000 to 10000 |
| Cc1cn2nc(-c3ccc4c(=O)n(C5CCNCC5)ccc4c3)cc(Oc3cccnc3)c2n1 [Compound 550, 6-[2-methyl-8-(3-pyridyloxy)imidazo[1,2-b]pyridazin-6-yl]-2-(4-piperidyl)isoquinolin-1-one] | < 100 | < 100 | < 100 | < 100 | < 100 |
| Cc1cn2nc(-c3ccc4c(=O)n(C5CCNCC5)ccc4c3)cc(Oc3ccccc3)c2n1 [Compound 519, 6-(2-methyl-8-phenoxy-imidazo[1,2-b]pyridazin-6-yl)-2-(4-piperidyl)isoquinolin-1-one] | < 100 | < 100 | < 100 | < 100 | < 100 |
| Cn1cc2cc(-c3ncc4c(=O)n(C5CCNCC5)ccc4n3)c(O)c(F)c2n1 [Compound 1123] | 100 to 1000 | < 100 | < 100 | < 100 | < 100 |
| Cc1cn2nc(-c3cc(O)c4c(=O)n(C5CCNCC5)ncc4c3)cc(C)c2n1 [Compound 541] | < 100 | < 100 | < 100 | < 100 | < 100 |
| COC(=O)Cc1cc(-c2ccc3c(=O)n(C4CCNCC4)ccc3c2)nn2cc(C)nc12 [Compound 527] | 100 to 1000 | 100 to 1000 | 100 to 1000 | 100 to 1000 | 100 to 1000 |
